Patent publication US20080194574A1, “Pyrazine Derivatives As Effective Compounds Against Infectious Diseases” (AXXIMA PHARMACEUTICALS AG, priority 2003, published 2008)
Where two headings read alike, the source gives them in different places.

Biological target: T1, viral kinase pUL-97 (Human cytomegalovirus, UniProt P16788)
T1 construct: The pUL-97 gene was cloned into a baculovirus vector; GST (glutathione S-transferase) (N); made in house; host or cells: Sf9 insect cells, baculovirus
Test: UL97 kinase assay on Immobilon plate
Type: biochemical
Conditions: inhibition of UL 97 kinase activity, read-out: Activity Class [A, B, C]
In short: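 GST-pUL97 from baculovirus-infected Sf9 cells phosphorylated myelin basic protein with ATP (3 μM in the added assay buffer) and γ-[33P]ATP in Tris-HCl pH 7.5 buffer with MnCl2 and DTT. Reaction ran 1 h at 30 °C with graded compound concentrations and was stopped with EDTA. 33P incorporation was measured by scintillation after filter capture and phosphoric acid washes.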

[1] = class by IC50 / % inhibition at 10 μM or 100 μM
[2] = class by IC50 / % inhibition at 10 or 100 μM

T1 sequence (P16788 whole entry): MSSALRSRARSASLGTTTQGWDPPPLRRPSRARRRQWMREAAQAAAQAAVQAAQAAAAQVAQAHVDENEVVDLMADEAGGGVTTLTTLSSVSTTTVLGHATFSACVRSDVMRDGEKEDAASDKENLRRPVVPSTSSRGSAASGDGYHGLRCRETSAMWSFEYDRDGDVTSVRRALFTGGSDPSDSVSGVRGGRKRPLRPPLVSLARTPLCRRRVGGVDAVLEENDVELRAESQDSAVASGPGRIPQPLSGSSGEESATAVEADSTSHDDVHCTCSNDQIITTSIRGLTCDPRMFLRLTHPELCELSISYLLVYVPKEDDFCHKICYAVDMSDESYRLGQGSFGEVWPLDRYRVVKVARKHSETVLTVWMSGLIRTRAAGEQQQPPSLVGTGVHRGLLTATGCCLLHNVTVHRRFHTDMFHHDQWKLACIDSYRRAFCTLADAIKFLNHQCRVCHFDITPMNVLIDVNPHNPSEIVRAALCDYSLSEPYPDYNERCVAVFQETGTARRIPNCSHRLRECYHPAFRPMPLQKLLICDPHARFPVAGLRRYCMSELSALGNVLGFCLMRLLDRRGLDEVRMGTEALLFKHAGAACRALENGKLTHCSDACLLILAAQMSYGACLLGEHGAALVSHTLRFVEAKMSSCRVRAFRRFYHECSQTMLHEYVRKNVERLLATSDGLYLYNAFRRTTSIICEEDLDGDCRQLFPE

CC(=O)c1ccc(-c2cncc(N3CCN(c4cccc(C)c4C)CC3)n2)s1 [compound 296, 1-{5-[4-(2,3-Dimethyl-phenyl)-3,4,5,6-tetrahydro-2H-[1,2′]bipyrazinyl-6′-yl]-thiophen-2-yl}-ethanone]
IC50 [1]: 10 to 100 µM

COc1cccc(N2CCN(c3cncc(-c4ccoc4)n3)CC2)c1 [compound 324, 6′-Furan-3-yl-4-(3-methoxy-phenyl)-3,4,5,6-tetrahydro-2H-[1,2′]bipyrazinyl]
IC50 [1]: 10 to 100 µM

Cc1ccc(-c2cncc(N3CCN(c4ccncc4)CC3)n2)cc1 [compound 220, 4-Pyridin-4-yl-6′-p-tolyl-3,4,5,6-tetrahydro-2H-[1,2′]bipyrazinyl]
IC50 [1]: 1 to 10 µM

Cc1ccccc1-c1cncc(N2CCN(c3ccncc3)CC2)n1 [compound 256, 4-Pyridin-4-yl-6′-o-tolyl-3,4,5,6-tetrahydro-2H-[1,2′]bipyrazinyl]
IC50 [1]: 10 to 100 µM

COc1ccc(-c2cncc(N3CCN(c4ccc(C(F)(F)F)cc4)CC3)n2)cc1OC [compound 310, 6′-(3,4-Dimethoxy-phenyl)-4-(4-trifluoromethyl-phenyl)-3,4,5,6-tetrahydro-2H-[1,2′]bipyrazinyl]
IC50 [1]: 10 to 100 µM

Fc1ccc(-c2cncc(N3CCN(c4ccncc4)CC3)n2)c(F)c1 [compound 46, 6′-(2,4-Difluoro-phenyl)-4-pyridin-4-yl-3,4,5,6-tetrahydro-2H-[1,2′]bipyrazinyl]
IC50 [2]: 1 to 10 µM

COc1cccc(-c2cncc(N3CCN(c4cccc(Cl)c4)CC3)n2)c1 [compound 98, 4-(3-Chloro-phenyl)-6′-(3-methoxy-phenyl)-3,4,5,6-tetrahydro-2H-[1,2′]bipyrazinyl]
IC50 [2]: 1 to 10 µM

Cc1cccc(-c2cncc(N3CCN(c4ccccc4F)CC3)n2)c1C [compound 250, 6′-(2,3-Dimethyl-phenyl)-4-(2-fluoro-phenyl)-3,4,5,6-tetrahydro-2H-[1,2′]bipyrazinyl]
IC50 [1]: 10 to 100 µM

CCOc1ccccc1-c1cncc(N2CCN(c3ccc(C)cc3)CC2)n1 [compound 175, 6′-(2-Ethoxy-phenyl)-4-p-tolyl-3,4,5,6-tetrahydro-2H-[1,2′]bipyrazinyl]
IC50 [2]: 10 to 100 µM

COc1ccc(-c2cncc(N3CCN(c4ccccc4OC)CC3)n2)cc1OC [compound 107, 6′-(3,4-Dimethoxy-phenyl)-4-(2-methoxy-phenyl)-3,4,5,6-tetrahydro-2H-[1,2′]bipyrazinyl]
IC50 [2]: 1 to 10 µM

CC(=O)c1cccc(-c2cncc(N3CCN(c4cccc(C)c4C)CC3)n2)c1 [compound 297, 1-{3-[4-(2,3-Dimethyl-phenyl)-3,4,5,6-tetrahydro-2H-[1,2′]bipyrazinyl-6′-yl]-phenyl}-ethanone]
IC50 [1]: 10 to 100 µM

CC(=O)c1ccccc1-c1cncc(N2CCN(c3ccc(F)cc3F)CC2)n1 [compound 141, 1-{2-[4-(2,4-Difluoro-phenyl)-3,4,5,6-tetrahydro-2H-[1,2′]bipyrazinyl-6′-yl]-phenyl}-ethanone]
IC50 [2]: 1 to 10 µM

OCc1ccc(-c2cncc(N3CCN(c4cccc5[nH]ccc45)CC3)n2)cc1 [compound 61, {4-[4-(1H-Indol-4-yl)-3,4,5,6-tetrahydro-2H-[1,2′]bipyrazinyl-6′-yl]-phenyl}-methanol]
IC50 [2]: 10 to 100 µM

OCc1ccc(-c2cncc(N3CCN(c4ccc(F)cc4F)CC3)n2)cc1 [compound 200, {4-[4-(2,4-Difluoro-phenyl)-3,4,5,6-tetrahydro-2H-[1,2′]bipyrazinyl-6′-yl]-phenyl}-methanol]
IC50 [1]: 10 to 100 µM

COc1ccc(N2CCN(c3cncc(-c4ccc(C(F)(F)F)cc4)n3)CC2)cc1OC [compound 172, 4-(3,4-Dimethoxy-phenyl)-6′-(4-trifluoromethyl-phenyl)-3,4,5,6-tetrahydro-2H-[1,2′]bipyrazinyl]
IC50 [2]: 1 to 10 µM

Cc1ccc(N2CCN(c3cncc(-c4ccc(F)cc4)n3)CC2)cc1 [compound 136, 6′-(4-Fluoro-phenyl)-4-p-tolyl-3,4,5,6-tetrahydro-2H-[1,2′]bipyrazinyl]
IC50 [2]: 1 to 10 µM

NC(=O)c1ccc(-c2cncc(N3CCN(c4ccccc4)CC3)n2)cc1 [Comp. 68, 4-(4-Phenyl-3,4,5,6-tetrahydro-2H-[1,2′]bipyrazinyl-6′-yl)-benzamide]
IC50 [2]: < 1 µM

Clc1ccc(-c2cncc(NCc3ccco3)n2)cc1 [compound 26, [6-(4-Chloro-phenyl)-pyrazin-2-yl]-furan-2-ylmethyl-amine]
IC50 [2]: < 1 µM

OCc1cccc(-c2cncc(N3CCN(c4ccncc4)CC3)n2)c1 [compound 52, [3-(4-Pyridin-4-yl-3,4,5,6-tetrahydro-2H-[1,2′]bipyrazinyl-6′-yl)-phenyl]-methanol]
IC50 [2]: 10 to 100 µM

Fc1ccccc1N1CCN(c2cncc(-c3ccsc3)n2)CC1 [compound 122, 4-(2-Fluoro-phenyl)-6′-thiophen-3-yl-3,4,5,6-tetrahydro-2H-[1,2′]bipyrazinyl]
IC50 [2]: 1 to 10 µM

Cc1ccc(-c2cncc(N3CCN(c4cnccn4)CC3)n2)cc1 [compound 330, 6-p-Tolyl-2′,3′,5′,6′-tetrahydro-[2,1′;4′,2″]terpyrazine]
IC50 [1]: 1 to 10 µM

OCc1cccc(-c2cncc(N3CCN(CCN4CCCC4)CC3)n2)c1 [compound 63, {3-[4-(2-Pyrrolidin-1-yl-ethyl)-3,4,5,6-tetrahydro-2H-[1,2′]bipyrazinyl-6′-yl]-phenyl}-methanol]
IC50 [2]: 10 to 100 µM

c1ccc(C2CCN(c3cncc(-c4csc5ccccc45)n3)CC2)cc1 [compound 319, 2-Benzo[b]thiophen-3-yl-6-(4-phenyl-piperidin-1-yl)-pyrazine]
IC50 [1]: 10 to 100 µM

CC(=O)c1ccc(N2CCN(c3cncc(-c4ccccc4C(C)=O)n3)CC2)cc1 [compound 146, 1-{2-[4-(4-Acetyl-phenyl)-3,4,5,6-tetrahydro-2H-[1,2′]bipyrazinyl-6′-yl]-phenyl}-ethanone]
IC50 [2]: 10 to 100 µM

CC(=O)c1ccc(-c2cncc(N3CCN(c4ccccn4)CC3)n2)cc1 [compound 308, 1-[4-(4-Pyridin-2-yl-3,4,5,6-tetrahydro-2H-[1,2′]bipyrazinyl-6′-yl)-phenyl]-ethanone]
IC50 [1]: 1 to 10 µM

CC(=O)c1ccc(-c2cncc(N3CCN(c4ccncc4)CC3)n2)cc1 [compound 133, 1-[4-(4-Pyridin-4-yl-3,4,5,6-tetrahydro-2H-[1,2′]bipyrazinyl-6′-yl)-phenyl]-ethanone]
IC50 [2]: 1 to 10 µM

Clc1cccc(N2CCN(c3cncc(-c4ccsc4)n3)CC2)c1 [compound 80, 4-(3-Chloro-phenyl)-6′-thiophen-3-yl-3,4,5,6-tetrahydro-2H-[1,2′]bipyrazinyl]
IC50 [2]: 10 to 100 µM

COc1cc(-c2cncc(N3CCN(c4cccc5[nH]ccc45)CC3)n2)cc(OC)c1OC [compound 37, 4-(1H-Indol-4-yl)-6′-(3,4,5-trimethoxy-phenyl)-3,4,5,6-tetrahydro-2H-[1,2′]bipyrazinyl]
IC50 [2]: 10 to 100 µM

NC(=O)c1ccc(-c2cncc(N3CCN(C(=O)c4ccco4)CC3)n2)cc1 [compound 34, 4-[4-(Furan-2-carbonyl)-3,4,5,6-tetrahydro-2H-[1,2′]bipyrazinyl-6′-yl]-benzamide]
IC50 [2]: < 1 µM

COc1ccc(-c2cncc(N3CCN(c4ccccn4)CC3)n2)cc1OC [compound 306, 6′-(3,4-Dimethoxy-phenyl)-4-pyridin-2-yl-3,4,5,6-tetrahydro-2H-[1,2′]bipyrazinyl]
IC50 [1]: 1 to 10 µM

Cc1ccc(-c2cncc(N3CCN(c4ccccc4F)CC3)n2)cc1 [compound 248, 4-(2-Fluoro-phenyl)-6′-p-tolyl-3,4,5,6-tetrahydro-2H-[1,2′]bipyrazinyl]
IC50 [1]: 10 to 100 µM

CC(=O)c1ccc(N2CCN(c3cncc(-c4ccc(F)cc4)n3)CC2)cc1 [compound 276, 1-{4-[6′-(4-Fluoro-phenyl)-2,3,5,6-tetrahydro-[1,2′]bipyrazinyl-4-yl]-phenyl}-ethanone]
IC50 [1]: 1 to 10 µM

CSc1ccc(-c2cnc(N)c(N3CCN(c4ccncc4)CC3)n2)cc1 [compound 75, 6′-(4-Methylsulfanyl-phenyl)-4-pyridin-4-yl-3,4,5,6-tetrahydro-2H-[1,2′]bipyrazinyl-3′-ylamine]
IC50 [2]: < 1 µM

COc1ccc(N2CCN(c3cncc(-c4cccc(OC)c4)n3)CC2)cc1 [compound 294, 4-(4-Methoxy-phenyl)-6′-(3-methoxy-phenyl)-3,4,5,6-tetrahydro-2H-[1,2′]bipyrazinyl]
IC50 [1]: 10 to 100 µM

COc1ccc2cc(-c3cncc(N4CCN(c5ccc(OC)c(OC)c5)CC4)n3)ccc2c1 [compound 169, 4-(3,4-Dimethoxy-phenyl)-6′-(6-methoxy-naphthalen-2-yl)-3,4,5,6-tetrahydro-2H-[1,2′]bipyrazinyl]
IC50 [2]: 1 to 10 µM

Cc1ccc(N2CCN(c3cncc(-c4ccc5ccccc5c4)n3)CC2)cc1C [compound 335, 4-(3,4-Dimethyl-phenyl)-6′-naphthalen-2-yl-3,4,5,6-tetrahydro-2H-[1,2′]bipyrazinyl]
IC50 [1]: 1 to 10 µM

CN(C)c1ccc(-c2cncc(N3CCN(c4ccc(F)cc4F)CC3)n2)cc1 [compound 208]
IC50 [1]: 1 to 10 µM

Fc1ccc(-c2cncc(N3CCN(c4ccccn4)CC3)n2)c(F)c1 [compound 19, 6′-(2,4-Difluoro-phenyl)-4-pyridin-2-yl-3,4,5,6-tetrahydro-2H-[1,2′]bipyrazinyl]
IC50 [2]: 10 to 100 µM

OCc1ccc(-c2cncc(N3CCN(c4ccccc4)CC3)n2)cc1 [compound 117, [4-(4-Phenyl-3,4,5,6-tetrahydro-2H-[1,2′]bipyrazinyl-6′-yl)-phenyl]-methanol]
IC50 [2]: 1 to 10 µM

N#Cc1ccc(-c2cncc(N3CCN(c4ccccn4)CC3)n2)cc1 [compound 303, 4-(4-Pyridin-2-yl-3,4,5,6-tetrahydro-2H-[1,2′]bipyrazinyl-6′-yl)-benzonitrile]
IC50 [1]: 1 to 10 µM

COc1ccccc1N1CCN(c2cncc(-c3ccc(C(C)(C)C)cc3)n2)CC1 [compound 88, 6′-(4-tert-Butyl-phenyl)-4-(2-methoxy-phenyl)-3,4,5,6-tetrahydro-2H-[1,2′]bipyrazinyl]
IC50 [2]: 10 to 100 µM
